The values below are quoted from earlier work in patent US20140088145A1 (Teva Pharmaceutical Industries, Ltd., priority 2012, published 2014).

The structures appear in SMILES notation.

The conditions of data set [1]: in vivo.
In data set [2] the test system is Huntington's disease patients. The conditions noted are these: 45 mg daily or 90 mg daily for 6 months.
The test system of data set [3] is Huntington's disease patients. The conditions noted are these: twice-daily doses of 45 mg over 12 weeks.
Data set [4] relates to patients with HD.

For the molecule `C#CCN[C@@H]1CCc2ccccc21` [rasagiline, R(+)-N-propargyl-l-aminoindan], the absolute bioavailability entry in data set [1] is on record as “about 36%”.
In the case of `CCCN1CCC(c2cccc(S(C)(=O)=O)c2)CC1` [pridopidine, 4-[3-(methylsulfonyl)phenyl]-1-propyl-piperidine], the “tertiary endpoint UHDRS-TMS (changes in motor function) and individual items within the mMS (gait, dysarthria)” value in data set [2] was “statistically significant effect of treatment”. Moreover, in data set [3], the “effect on total motor function” value is listed as “significant effect on total motor function”. Also, the “symptomatic relief incl. hand movements, gait and balance” value in data set [4] is “significant symptomatic relief”.
